Assay results published in ChEMBL document CHEMBL1152790, “Synthesis and pharmacological characterization of beta2-adrenergic agonist enantiomers: zilpaterol” (J Med Chem, 2009).
Where a name gives a salt, the structure may show the parent alone. Active and inactive are the calls of the source. The rule behind the calls is not given here.

Tests used:
Mu-type opioid receptor [1] = molecular target: T1, Mu-type opioid receptor (Homo sapiens, UniProt P35372); assay: Agonist activity at human recombinant mu opioid receptor expressed in AequoScreen cells assessed as aequorin-derived receptor-mediated changes in intracellular calcium levels; format: functional, cell-based
Mu-type opioid receptor [2] = molecular target: T1, Mu-type opioid receptor; assay: Antagonist activity at human recombinant mu opioid receptor expressed in AequoScreen cells assessed as aequorin-derived receptor-mediated changes in intracellular calcium levels; format: functional, cell-based
Mu-type opioid receptor [3] = molecular target: T1, Mu-type opioid receptor; assay: Displacement of [3H]DAMGO from human recombinant mu opioid receptor expressed in HEK293 cells by scintillation counting; format: cell-based
[4] = molecular target: Beta-2 adrenergic receptor (Cavia porcellus, UniProt Q8K4Z4)
Beta-2 adrenergic receptor, sequence (Q8K4Z4 whole entry): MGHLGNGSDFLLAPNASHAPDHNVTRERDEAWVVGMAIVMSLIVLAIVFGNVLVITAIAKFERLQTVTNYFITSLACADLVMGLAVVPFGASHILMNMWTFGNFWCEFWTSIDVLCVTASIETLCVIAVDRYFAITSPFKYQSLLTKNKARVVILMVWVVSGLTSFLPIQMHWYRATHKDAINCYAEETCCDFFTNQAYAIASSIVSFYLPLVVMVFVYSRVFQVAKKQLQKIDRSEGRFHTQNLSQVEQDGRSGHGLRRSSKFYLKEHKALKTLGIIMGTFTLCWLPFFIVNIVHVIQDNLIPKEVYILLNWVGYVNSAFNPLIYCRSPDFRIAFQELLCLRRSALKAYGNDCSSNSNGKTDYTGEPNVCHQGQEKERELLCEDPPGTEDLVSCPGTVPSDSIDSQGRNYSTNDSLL
Description: Agonist activity at adrenergic beta2 receptor in guinea pig trachea assessed as relaxation of carbachol-induced tissue contraction

T1 sequence (P35372 whole entry): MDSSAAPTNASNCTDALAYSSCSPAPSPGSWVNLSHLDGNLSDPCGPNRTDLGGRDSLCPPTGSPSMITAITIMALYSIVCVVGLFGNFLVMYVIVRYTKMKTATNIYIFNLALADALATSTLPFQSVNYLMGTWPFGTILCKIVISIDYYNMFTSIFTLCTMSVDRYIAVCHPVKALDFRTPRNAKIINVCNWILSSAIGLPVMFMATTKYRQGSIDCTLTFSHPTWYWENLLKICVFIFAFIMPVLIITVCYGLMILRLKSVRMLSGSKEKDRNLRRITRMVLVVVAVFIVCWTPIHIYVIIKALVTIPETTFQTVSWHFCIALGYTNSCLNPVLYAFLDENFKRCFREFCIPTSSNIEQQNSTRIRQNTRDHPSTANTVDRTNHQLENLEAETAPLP

Row | SMILES | Activity (Mu-type opioid receptor [1]) | Emax (Mu-type opioid receptor [2]) [%] | IC50 (Mu-type opioid receptor [2]) [µM] | also measured
1 | CC(C)N[C@@H]1CCn2c(=O)[nH]c3cccc(c32)[C@H]1O | inactive |  |  | 
2 | CC(C)N[C@H]1CCn2c(=O)[nH]c3cccc(c32)[C@@H]1O | inactive | 96 | 140 | 
3 | CC(C)N[C@@H]1CCn2c(=O)[nH]c3cccc(c32)[C@H]1O (racemic) [ZILPATEROL HYDROCHLORIDE] |  |  | 300 | IC50 (Mu-type opioid receptor [3]): 31 µM; Ki (Mu-type opioid receptor [3]): 13 µM
4 | CC(C)(C)NCC(O)c1cc(Cl)c(N)c(Cl)c1 (racemic) [CLENBUTEROL] |  |  |  | EC50 [4]: 0.013 µM
5 | CC(C)N[C@@H]1CCn2c(=O)[nH]c3cccc(c32)[C@H]1O [ZILPATEROL HYDROCHLORIDE] |  |  | > 1000 | 
6 | CC(C)N[C@@H]1CCn2c(=O)[nH]c3cccc(c32)[C@H]1O (racemic) | inactive | 93 |  | 
